Read-outs that look alike come from different tables or passages of the source.
Key:
[1] = biological target: T1, Recombinant human Src (Homo sapiens, UniProt P12931); test: Src tyrosine kinase activity, poly E4Y and 32P-ATP; format: biochemical
T1 construct: made in house; host or cells: baculovirus-insect cell system
Method in brief: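 Recombinant GST-Csk (E. coli) or baculovirus-expressed human Src assayed on poly E4Y in 0.15 M EPPS-NaOH pH 8.0, 6 mM MgCl2, 0.2 mM γ32P-ATP, 10% glycerol, 0.1% Triton X-100. Read-out is 32P incorporation into poly E4Y; for ATP variation (0–250 μM), poly E4Y held at 150 μg/ml.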

[2] = biological target: T2, Csk (Homo sapiens, UniProt P41240); test: Csk tyrosine kinase activity, poly E4Y and 32P-ATP; format: biochemical
T2 construct: GST (glutathione-S-transferase) (N); made in house; host or cells: E. coli (pGEX vector)
Procedure: Recombinant human Src was expressed using the baculovirus-insect cell system and purified as published (Budde et al., 1993 and 2000). Recombinant Csk and the FGF receptor (FGFr) were expressed as glutathione-S-transferase fusion proteins using the pGEX expression vector and E. coli, and purified as described (Sun & Budde, 1995).
The tyrosine kinase activity of Src, Csk and FGFr was determined using poly E4Y and ^32P-ATP. Briefly, enzymes were assayed in a reaction mixture consisting of 0.15 M EPPS-NaOH (pH 8.0) with 6 mM MgCl2, 0.2 mM γ^32P-ATP (0.2-0.4 mCi/μmol), 10% glycerol, 0.1% Triton X-100, and poly E4Y. Poly E4Y is a synthetic peptide whose phosphorylation is measured in this assay by the addition of the radioactively labeled phosphate from the ATP (Budde et al., 1995). […] When ATP was varied (0, 50, 100 and 250 μM), poly E4Y was kept constant at 150 μg/ml.

[3] = Table 2, read-out: Src IC50 (especially good inhibitors of Src)
[4] = read-out: IC50 (preferred compounds for treatment of Src family-related disease)
[5] = screening assay, 50 μg/ml poly E4Y, 0.2 mM 32P-ATP
[6] = screening assay, 50 μg/ml poly E4Y, 0.2 mM 32P-ATP, read-out: Src IC50

T1 sequence (P12931 whole entry): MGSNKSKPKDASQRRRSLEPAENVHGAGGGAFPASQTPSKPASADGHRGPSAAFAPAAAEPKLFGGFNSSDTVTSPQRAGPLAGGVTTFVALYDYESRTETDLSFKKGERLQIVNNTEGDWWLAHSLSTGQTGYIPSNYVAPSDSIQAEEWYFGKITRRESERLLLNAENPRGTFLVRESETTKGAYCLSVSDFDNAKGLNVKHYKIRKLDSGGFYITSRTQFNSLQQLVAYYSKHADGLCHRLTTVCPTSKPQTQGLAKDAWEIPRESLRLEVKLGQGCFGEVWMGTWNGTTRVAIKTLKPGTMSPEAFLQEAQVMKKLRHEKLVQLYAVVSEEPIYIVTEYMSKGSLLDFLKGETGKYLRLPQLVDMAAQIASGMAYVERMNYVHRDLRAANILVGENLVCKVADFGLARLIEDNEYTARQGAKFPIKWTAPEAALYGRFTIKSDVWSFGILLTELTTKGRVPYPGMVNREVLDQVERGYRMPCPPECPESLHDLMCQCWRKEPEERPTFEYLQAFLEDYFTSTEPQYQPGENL

Row | Structure (SMILES) | IC50 [1, 3] [µM] | IC50 [1, 4] [µM] | IC50 [2, 5] [µM] | other results
1 | Cc1csc2c(NN=Cc3ccccc3)ncnc12 [Compound 7, Benzaldehyde(7-methylthieno[3,2-d]pyrimidin-4-yl)hydrazone] | ≤ 2 | < 2 | > 186 | 
2 | COc1ccc(C=NNc2ncnc3c(C)csc23)cc1 [Compound 14, 4-Methoxybenzaldehyde(7-methylthieno[3,2-d]pyrimidin-4-yl)hydrazone] | ≤ 2 | < 2 | > 168 | 
3 | Cc1csc2c(NN=Cc3ccncc3)ncnc12 [Compound 16, 4-Pyridinecarboxaldehyde(7-methylthieno[3,2-d]pyrimidin-4-yl)hydrazone] | ≤ 2 | < 2 | > 186 | 
4 | COc1ccc(C=NNc2ncnc3c(C)csc23)cc1OC [Compound 17, 3,4-Dimethoxybenzaldehyde(7-methylthieno[3,2-d]pyrimidin-4-yl)hydrazone] | ≤ 2 | < 2 | > 152 | 
5 | Cc1csc2c(NN=Cc3ccc[nH]3)ncnc12 [Compound 30, 1H-Pyrrole-2-carboxaldehyde(7-methylthieno[3,2-d]pyrimidin-4-yl)hydrazone] | ≤ 2 | < 2 | > 194 | 
6 | Cc1csc2c(NN=Cc3cccc(O)c3)ncnc12 [Compound 32, 3-Hydroxybenzaldehyde(7-methylthieno[3,2-d]pyrimidin-4-yl)hydrazone] | ≤ 2 | < 2 | > 176 | 
7 | Cc1csc2c(NN=Cc3ccsc3)ncnc12 [Compound 33, 3-Thiophenecarboxaldehyde(7-methylthieno[3,2-d]pyrimidin-4-yl)hydrazone] | ≤ 2 | < 2 | > 182 | 
8 | Cc1csc2c(NN=Cc3ccccc3O)ncnc12 [Compound 44] |  |  | > 176 | IC50 [1, 6]: > 176 µM
9 | Cc1csc2c(NN=Cc3cccc(F)c3)ncnc12 [Compound 52, 3-Fluorobenzaldehyde(7-methylthieno[3,2-d]pyrimidin-4-yl)hydrazone] | ≤ 2 | < 2 | > 175 | 
10 | Cc1csc2c(NN=Cc3cccc([N+](=O)[O-])c3)ncnc12 [Compound 144] |  |  | > 160 | 
11 | CC=NNc1ncnc2c(C)csc12 [Compound 153, Ethanal(7-methylthieno[3,2-d]pyrimidin-4-yl)hydrazone] |  |  | > 242 | 
12 | CSc1ccc(C=NNc2ncnc3c(C)csc23)cc1 [Compound 172, 4-(Methylthio)benzaldehyde(7-methylthieno[3,2-d]pyrimidin-4-yl)hydrazone] |  |  | > 159 | 
13 | CCC=NNc1ncnc2c(C)csc12 [Compound 173, Propanal(7-methylthieno[3,2-d]pyrimidin-4-yl)hydrazone] |  |  | > 227 | 
14 | CCCC=NNc1ncnc2c(C)csc12 [Compound 174, Butanal(7-methylthieno[3,2-d]pyrimidin-4-yl)hydrazone] |  |  | > 213 | 
15 | Cc1csc2c(NN=CC3CC=CCC3)ncnc12 (stereo not drawn) [Compound 181, 3-Cyclohexene-1-carboxaldehyde(7-methylthieno[3,2-a]pyrimidin-4-yl)hydrazone] |  |  | > 184 | 
16 | CC=CC=NNc1ncnc2c(C)csc12 [Compound 182, E-2-Butenal(7-methylthieno[3,2-d]pyrimidin-4-yl)hydrazone] |  |  | > 215 | 
17 | Cc1csc2c(NN=Cc3cccc(C(=O)O)c3)ncnc12 [Compound 249, 3-Carboxybenzaldehyde(7-methylthieno[3,2-d]pyrimidin-4-yl)hydrazone] |  |  | > 160 | 
18 | C(=NNc1ncnc2cc(-c3ccccc3)sc12)c1cccs1 [Compound 253] |  |  | > 149 | 
19 | Clc1cccc(-c2cc3ncnc(NN=Cc4cccs4)c3s2)c1 [Compound 306] |  |  | > 135 | 
20 | Clc1ccc(-c2cc3ncnc(NN=Cc4cccnc4)c3s2)cc1 [Compound 308, 3-Pyridinecarboxaldehyde(6-(4-chlorophenyl)thieno[3,2-d]pyrimidin-4-yl)hydrazone] |  |  | > 137 | 
21 | Clc1ccc(-c2cc3ncnc(NN=Cc4cccs4)c3s2)cc1 [Compound 310] |  |  | > 135 | 
22 | Cc1c(I)sc2c(NN=Cc3cccs3)ncnc12 [Compound 374, 2-Thiophenecarboxaldehyde(6-iodo-7-methylthieno[3,2-d]pyrimidin-4-yl)hydrazone] |  |  | > 125 | 
23 | Ic1cc2ncnc(NN=Cc3cccs3)c2s1 [Compound 396, 2-Thiophenecarboxaldehyde(6-iodothieno[3,2-d]pyrimidin-4-yl)hydrazone] |  |  | > 129 | 
24 | COc1ccc(-c2sc3c(NN=Cc4cccs4)ncnc3c2C)cc1 [Compound 424, 2-Thiophenecarboxaldehyde(6-(4-methoxyphenyl)-7-methylthieno[3,2-d]pyrimidin-4-yl)hydrazone] |  |  | > 131 | 
25 | COc1ccc(C=NNc2ncnc3c(C)c(/C=C/c4ccccc4)sc23)cc1O [Compound 450, 3-Hydroxy-4-methoxybenzaldehyde(7-methyl-6-(trans-2-phenylvinyl)-thieno[3,2-d]pyrimidin-4-yl)hydrazone] |  |  | > 120 | 
26 | COc1cc(C(O)c2sc3c(NN=Cc4cccnc4)ncnc3c2C)cc(OC)c1OC (stereo not drawn) [Compound 479, 3-Pyridinecarboxaldehyde(6-(1-hydroxy-1-[3,4,5-trimethoxyphenyl])methyl-7-methylthieno[3,2-d]pyrimidin-4-yl)hydrazone] |  |  |  | IC50 ([2]; poly E4Y and 32P-ATP): > 107 µM
27 | COc1cc(C(O)c2sc3c(NN=Cc4ccc(C(=O)O)cc4)ncnc3c2C)cc(OC)c1OC (stereo not drawn) [Compound 480, 4-Carboxybenzaldehyde(6-(1-hydroxy-1-[3,4,5-trimethoxyphenyl])methyl-7-methylthieno[3,2-d]pyrimidin-4-yl)hydrazone] |  |  |  | IC50 ([2]; poly E4Y and 32P-ATP): > 98.3 µM
28 | COc1cc(C(O)c2sc3c(NN=Cc4cccs4)ncnc3c2C)cc(OC)c1OC (stereo not drawn) [Compound 481, 2-Thiophenecarboxaldehyde(6-(1-hydroxy-1-[3,4,5-trimethoxyphenyl])methyl-7-methylthieno[3,2-d]pyrimidin-4-yl)hydrazone] |  |  |  | IC50 ([2]; poly E4Y and 32P-ATP): > 106 µM
29 | COc1ccc(C=NNc2ncnc3c(C)c(C(O)c4cc(OC)c(OC)c(OC)c4)sc23)cc1O (stereo not drawn) [Compound 482, 3-Hydroxy-4-methoxybenzaldehyde(6-(1-hydroxy-1-[3,4,5-trimethoxyphenyl])methyl-7-methylthieno[3,2-d]pyrimidin-4-yl)hydrazone] |  |  |  | IC50 ([2]; poly E4Y and 32P-ATP): > 97.9 µM

Now from value to compound, other results behind:

Row | IC50 [1, 3] [µM] | IC50 [1, 4] [µM] | IC50 [2, 5] [µM] | Structure (SMILES) | other results
30 | ≤ 2 | < 2 | > 152 | COc1cc(C=NNc2ncnc3c(C)csc23)cc(OC)c1 [Compound 18, 3,5-Dimethoxybenzaldehyde(7-methylthieno[3,2-d]pyrimidin-4-yl)hydrazone] | 
31 | ≤ 2 | < 2 | > 165 | Cc1csc2c(NN=Cc3cccc(Cl)c3)ncnc12 [Compound 19, 3-Chlorobenzaldehyde(7-methylthieno[3,2-d]pyrimidin-4-yl)hydrazone] | 
32 |  |  | > 160 | Cc1csc2c(NN=Cc3ccc([N+](=O)[O-])cc3)ncnc12 [Compound 24] | IC50 [1, 6]: > 160 µM
33 | ≤ 2 | < 2 | > 194 | Cc1csc2c(NN=Cc3ccco3)ncnc12 [Compound 31, 2-Furancarboxaldehyde(7-methylthieno[3,2-d]pyrimidin-4-yl)hydrazone] | 
34 | ≤ 2 | < 2 | > 160 | CCOc1ccc(C=NNc2ncnc3c(C)csc23)cc1 [Compound 48, 4-Ethoxybenzaldehyde(7-methylthieno[3,2-d]pyrimidin-4-yl)hydrazone] | 
35 | ≤ 2 | < 2 | > 152 | CCOc1cc(C=NNc2ncnc3c(C)csc23)ccc1O [Compound 50, 3-Ethoxy-4-hydroxybenzaldehyde(7-methylthieno[3,2-d]pyrimidin-4-yl)hydrazone] | 
36 | ≤ 2 | < 2 | > 159 | COc1cc(C=NNc2ncnc3c(C)csc23)ccc1O [Compound 53, 4-Hydroxy-3-methoxybenzaldehyde(7-methylthieno[3,2-d]pyrimidin-4-yl)hydrazone] | 
37 |  |  | > 153 | CCCOc1cccc(C=NNc2ncnc3c(C)csc23)c1 [Compound 135, 3-Propoxybenzaldehyde(7-methylthieno[3,2-d]pyrimidin-4-yl)hydrazone] | 
38 |  |  | > 147 | CCCCOc1cccc(C=NNc2ncnc3c(C)csc23)c1 [Compound 139] | 
39 |  |  | > 201 | CCCCC=NNc1ncnc2c(C)csc12 [Compound 175, Pentanal(7-methylthieno[3,2-d]pyrimidin-4-yl)hydrazone] | 
40 |  |  | > 151 | N#Cc1ccc(C=NNc2ncnc3c2sc2ncccc23)cc1 [Compound 248] | 
41 |  |  | > 137 | Clc1cccc(-c2cc3ncnc(NN=Cc4cccnc4)c3s2)c1 [Compound 304, 3-Pyridinecarboxaldehyde(6-(3-chlorophenyl)thieno[3,2-d]pyrimidin-4-yl)hydrazone] | 
42 |  |  | > 136 | COc1ccc(-c2cc3ncnc(NN=Cc4cccs4)c3s2)cc1 [Compound 407, 2-Thiophenecarboxaldehyde(6-(4-methoxyphenyl)thieno[3,2-d]pyrimidin-4-yl)hydrazone] | 
